A short description of data set [1]: Physical stability upon exposure to accelerated aging conditions (AAC, 40° C./75% RH), re-analysis by HT-XRPD. The class given is physicochemical. The following applies: for Physical stability upon exposure to AAC / Stable during AAC: 40° C./75% RH, 2 days; for Physical stability upon exposure to AAC: HT-XRPD before and after; for Stable during AAC: salt screen solids; for Liquid phase AAC (XRPD form after accelerated aging): solids from evaporated mother liquors of the salt screen; for Liquid phase AAC (XRPD form after accelerated aging) / Solid phase AAC (XRPD form after accelerated aging): 40° C./75% RH for 2 days, HT-XRPD; for Solid phase AAC (XRPD form after accelerated aging): precipitated solids of the salt screen, dried under vacuum at 50° C.

A short description of data set [2]: Solubility of salts in water and in 0.2 M phosphate buffer pH 6 at 37° C. after 4 hours (HPLC-DAD). Format: physicochemical. The following applies: for pH (4 h): pH at end of equilibration. As to the method:
Two sets of solubility experiments were performed. […] In the second set of solubility experiments about 5 mg of the salt was weighed in a standard 1.8 mL HPLC vial. Subsequently, aliquots of 200 μL of aqueous medium were added up to a maximum of 1 mL, while making observations regarding the dissolution behavior of the salts. The vials were left to equilibrate at 37° C. with continuous stirring (see Table 25 for details). After 4 hours the solids were separated from the liquid by centrifugation and the liquid phase was further filtrated through a […] PTFE filter to remove any particulate matter. The concentration of solute was determined by HPLC-DAD analysis. A calibration curve was made from two independent stock solutions of voruciclib prepared in acetonitrile/water. The pH was recorded at the end of the equilibration time.

[3] abbreviates: 0.2 M phosphate buffer pH 6, 37° C., 4 hours.
Where [4] appears, read: 0.2M phosphate buffer pH 6, 37° C., 4 hours, about 1 mg salt in 1 mL.
Where [5] appears, read: 0.2M phosphate buffer pH 6, 37° C., 4 hours, about 5 mg salt in 1 mL.
Where [6] appears, read: 0.2M phosphate buffer pH 6, 37° C., about 1 mg salt in 1 mL.
Where [7] appears, read: 0.2M phosphate buffer pH 6, 37° C., about 5 mg salt in 1 mL.
[8] abbreviates: water, 37° C., 4 hours, about 1 mg salt in 1 mL.
Where [9] appears, read: water, 37° C., 4 hours, about 5 mg salt, up to 1 mL.
[10] abbreviates: water, 37° C., about 1 mg salt in 1 mL.
Setting [11] is: water, 37° C., about 5 mg salt, up to 1 mL.

The values that follow come from patent US12421216B2, “Voruciclib polymorphs and methods of making and using thereof” (MEI PHARMA, INC., priority 2019, dated 2025).

“Also recorded” adds a separate entry of the source.

For the compound `CN1CC[C@@H](c2c(O)cc(O)c3c(=O)cc(-c4ccc(C(F)(F)F)cc4Cl)oc23)[C@@H]1CO.O=C(O)c1ccc2ccccc2c1O` [Xin1], in data set [1], the “Physical stability upon exposure to AAC” value is “physically stable during exposure to AAC”, the “Stable during AAC” value was “Yes” and the “Liquid phase AAC (XRPD form after accelerated aging)” value (from here on “Liquid phase AAC”) is recorded as “Xin1”.

Take `CN1CC[C@@H](c2c(O)cc(O)c3c(=O)cc(-c4ccc(C(F)(F)F)cc4Cl)oc23)[C@@H]1CO.O=S(=O)(O)c1ccccc1` [Bes1]: in data set [1], the “Physical stability upon exposure to AAC” value was “physically unstable during exposure to AAC and became less crystalline”; the “Stable during AAC” value is given as “No => Am or”.

Regarding `CN1CC[C@@H](c2c(O)cc(O)c3c(=O)cc(-c4ccc(C(F)(F)F)cc4Cl)oc23)[C@@H]1CO.CN1CC[C@@H](c2c(O)cc(O)c3c(=O)cc(-c4ccc(C(F)(F)F)cc4Cl)oc23)[C@@H]1CO.O=S(=O)(O)c1cccc2c(S(=O)(=O)O)cccc12` [Nds1a], the “Physical stability upon exposure to AAC” value in data set [1] is given as “stable during exposure to AAC for 2 days; also recorded: physically stable upon exposure to AAC for two days”. In addition, the “Solid phase AAC (XRPD form after accelerated aging)” value (“Solid phase AAC” below) in data set [1] was “Nds1a”. The “Stable during AAC” value in data set [1] was “Yes”. For the same compound, the “Solubility in phosphate buffer” value in data set [2] (setting [3]) is 20 µg/mL. For the same compound, the solubility turned out to be 20 µg/mL in data set [2] (setting [4]), 20 µg/mL in data set [2] (setting [5]), 30 µg/mL in data set [2] (setting [8]) and 20 µg/mL in data set [2] (setting [9]). In addition, the “Solids recovered / salt dissociation after solubility determination in buffer” value in data set [2] (0.2 M phosphate buffer pH 6, 37° C., 4 hours, XRPD) is listed as “the residual solids were identical to Nds1a”. In addition, the “Form (4 h) of residual solid” value was “Free” in data set [2] (setting [6]), “Nds1a” in data set [2] (setting [7]) and “Nds1a” in data set [2] (setting [11]). The “pH (4 h)” value in data set [2] (setting [6]) is 6.0; in data set [2] (setting [7]) it was 5.9; in data set [2] (setting [10]), 4.3; in data set [2] (setting [11]), 3.4. In data set [2] (water, 37° C., 4 hours), the Solubility in water is 20 µg/mL. The “Solids recovered after solubility determination in water” value in data set [2] (water, 37° C., 4 hours, XRPD) is on record as “the residual solids were identical to Nds1a”.

For the compound `CN1CCC(c2c(O)cc(O)c3c(=O)cc(-c4ccc(C(F)(F)F)cc4Cl)oc23)C1CO.O=C(O)CC(O)C(=O)O` (centres unmarked) [Mal1], the “Stable during AAC” value in data set [1] is “Yes”.

`CN1CCC(c2c(O)cc(O)c3c(=O)cc(-c4ccc(C(F)(F)F)cc4Cl)oc23)C1CO.O=C(O)C=CC(=O)O` (centres unmarked) [Fum1]: in data set [1], the “Solid phase AAC” value was “Fum1” and the “Stable during AAC” value is “Yes”.

Take `N[C@@H](CCC(=O)O)C(=O)O` [Glm0]: in data set [1], the “Solid phase AAC” value was “Glm0”.

For the compound `CN1CCC(c2c(O)cc(O)c3c(=O)cc(-c4ccc(C(F)(F)F)cc4Cl)oc23)C1CO.O=C(O)c1ccccc1` (centres unmarked) [Ben1], in data set [1], the “Physical stability upon exposure to AAC” value was “physically unstable during exposure to AAC for two days and converted to Ben3”; the “Stable during AAC” value was “No => Ben3”; the “Liquid phase AAC” value was “Ben3”.

Take `CN1CCC(c2c(O)cc(O)c3c(=O)cc(-c4ccc(C(F)(F)F)cc4Cl)oc23)C1CO.CN1CCC(c2c(O)cc(O)c3c(=O)cc(-c4ccc(C(F)(F)F)cc4Cl)oc23)C1CO.O=C(OC(C(=O)O)C(OC(=O)c1ccccc1)C(=O)O)c1ccccc1` (centres unmarked) [DiTr1]: the “Physical stability upon exposure to AAC” value in data set [1] is “physically stable under AAC; also recorded: physically stable upon exposure to AAC for two days”. The “Solid phase AAC” value in data set [1] is “DiTr1”. The “Stable during AAC” value in data set [1] is given as “Yes”. Further, the “Solubility in phosphate buffer” value in data set [2] (setting [3]) lay within 30 to 40 µg/mL. For the same compound, the solubility in data set [2] (setting [4]) worked out at 30 µg/mL; in data set [2] (setting [5]) it was 40 µg/mL; in data set [2] (setting [8]), 40 µg/mL; in data set [2] (setting [9]), 30 µg/mL. Besides, the “Form (4 h) of residual solid” value in data set [2] (setting [6]), in data set [2] (setting [7]) and in data set [2] (setting [11]) was “DiTr1” each time. Also, the “pH (4 h)” value in data set [2] (setting [6]) is 6.0; in data set [2] (setting [7]) it was 6.3; in data set [2] (setting [10]), 4.0; in data set [2] (setting [11]), 3.5. For the same compound, the “Dissolution behaviour in aqueous media (gelling, wettability)” value in data set [2] (salt screen, water and/or 0.2 M phosphate buffer pH 6) is “poor wettability”. The Solubility in water in data set [2] (water, 37° C., 4 hours) fell in the range of 30 to 40 µg/mL. Further, the “Solids recovered after solubility determination in water” value in data set [2] (water, 37° C., 4 hours, XRPD) is “DiTr1 was recovered”.

Take `CN1CCC(c2c(O)cc(O)c3c(=O)cc(-c4ccc(C(F)(F)F)cc4Cl)oc23)C1CO.O=S(=O)(O)O` (centres unmarked) [Sul4]: in data set [1], the “Stable during AAC” value is “Yes”.

As for `CN1CCC(c2c(O)cc(O)c3c(=O)cc(-c4ccc(C(F)(F)F)cc4Cl)oc23)C1CO.CN1CCC(c2c(O)cc(O)c3c(=O)cc(-c4ccc(C(F)(F)F)cc4Cl)oc23)C1CO.O=S(=O)(O)c1cccc2c(S(=O)(=O)O)cccc12` (centres unmarked) [Hemi-napadisylate], the “Solubility pH 6” value in data set [2] (setting [3]) turned out to be 0.02 mg/mL. Besides, the Solubility water in data set [2] (water, 37° C., 4 hours) stood at 20 µg/mL.

On to `CN1CCC(c2c(O)cc(O)c3c(=O)cc(-c4ccc(C(F)(F)F)cc4Cl)oc23)C1CO.CN1CCC(c2c(O)cc(O)c3c(=O)cc(-c4ccc(C(F)(F)F)cc4Cl)oc23)C1CO.O=S(=O)(O)O` (centres unmarked) [Sul2], for which, in data set [1], the “Solid phase AAC” value is recorded as “Sul2” and the “Stable during AAC” value is reported as “Yes”.

For `Br.CN1CCC(c2c(O)cc(O)c3c(=O)cc(-c4ccc(C(F)(F)F)cc4Cl)oc23)C1CO` (centres unmarked) [HBr1], in data set [1], the “Physical stability upon exposure to AAC” value is “physically unstable during exposure to accelerated aging conditions and converted to HBr2”; the “Stable during AAC” value is listed as “No => HBr2”; the “Liquid phase AAC” value is given as “HBr2”.

Turning to `CN1CC[C@@H](c2c(O)cc(O)c3c(=O)cc(-c4ccc(C(F)(F)F)cc4Cl)oc23)[C@@H]1CO.O=S(=O)(O)O` [Sul1], in data set [1], the “Solid phase AAC” value is on record as “Sul1”, the “Stable during AAC” value is reported as “Yes” and the “Liquid phase AAC” value is “Sul1”.
